Experimental data as given in patent US8158360B2, “Effects of inhibitors of FGFR3 on gene transcription” (priority 2005, dated 2012).

Key:
Assay in all cases: Sensitivity of multiple myeloma cell line to CHIR-258 treatment
Type in all cases: cell-based, human
U266 = details: U266: Ras WT, FGFR3 negative
H929 = details: H929: N13 Ras mutant, FGFR3 wild-type (WT)
KMS11 = details: KMS11: Ras WT, FGFR3Y373C mutant
UTMC2 = details: UTMC2: Ras WT, FGFR3WT
KMS18 = details: KMS18: Ras WT, FGFR3G384D mutant

CN1CCN(c2ccc3nc(-c4c(N)c5c(F)cccc5[nH]c4=O)[nH]c3c2)CC1 [CHIR-258, 4-Amino-5-fluoro-3-[6-(4-methylpiperazin-1-yl)-1H-benzimidazol-2-yl]quinolin-2(1H)-one]
sensitivity of cell line to treatment (U266): resistant | sensitivity of cell line to treatment (H929): resistant | sensitivity of cell line to treatment (KMS11): sensitive | sensitivity of cell line to treatment (UTMC2): resistant | sensitivity of cell line to treatment (KMS18): sensitive
